{
  "source": "patent US10159640B2",
  "about": "“Prebiotic oral care compositions containing amino acids” (COLGATE-PALMOLIVE COMPANY, priority 2013, dated 2018)",
  "format_in_all_cases": "cell-based",
  "key": {"[1]": {"system": "Aggregatibacter actinomycetemcomitans", "assay": "Biofilm growth assay in BHI, crystal violet", "details": "control = 1", "method": "(§1) The increase in biofilm formation of the tested bacteria in response to selected compounds (Met-Pro, Phe-Glu) was investigated by setting up biofilm growth assays in a nutritionally rich medium (brain heart infusion broth (BHI), Oxoid), over 48 hours. Late exponential growth phase liquid cultures were prepared by transferring the respective bacterium from blood agar plates to BHI and overnight incubation at 37° C. in an anaerobic atmosphere for A. viscosus, V. parvula, F. nucleatum, P. gingivalis, P. intermedia, T. forsythia, A. naeslundii, and C. sputigena, and in a 5% CO2 environment for S. salivarius, S. sanguinis, S. mitis, A. actinomycetemcomitans, S. mutans, and S. gordonii. Overnight cultures were transferred to BHI and adjusted to a concentration of 1×10^7 CFU/ml by measuring the optical density at 600 nm (OD600) (BioRad SmartSpec 3000). For each strain, 200 μl of the bacterial suspension was added to a 96-well plate containing 20 μl of the respective di-peptides. Final concentrations of the di-peptides were set to 5, 10, 20 and 25 μmol/ml. […] Additionally, for each bacterium tested, a background control, to correct for background staining, was added. This background control contained the bacterium tested and 0.03 weight % chlorhexidine, as an antiseptic. Plates were incubated as previously described. After 48 hrs the supernatant was removed from the wells of the plates. The wells were washed twice with 1×100 μL PBS (phosphate buffered saline), fixed for 20 minutes with 96% vol. ethanol (96% vol. solution in water) and the biofilm retained at the bottom of the wells was stained with 1 weight % crystal violet (1 weight % solution in water). The bound dye was dissolved with 5% vol. acetic acid (5% vol. solution in water). Quantification of the stained biofilm was performed by measuring the absorbance at 630 nm using a Multiskan Ascent microplate reader (Thermo Scientific).\n(§2) The experiment was carried out on three different days (thus providing 3 biological replicas) and each day the experiment was carried out in quadruple (thus providing 4 technical replicas) for each combination of bacterium with dipeptide and for each control. For each day and for each combination, the average (mean) of the values obtained (as detailed above) for the four technical replicas was calculated to provide a single value for each combination on each day. The values shown in Tables 7 to 8, below, are the average (mean) of the three single values obtained for each combination of bacterium with dipeptide."}, "Fusobacterium nucleatum": {"system": "Fusobacterium nucleatum", "assay": "Biofilm growth assay in BHI, crystal violet", "details": "control = 1", "method": "as §1, §2"}, "Streptococcus mutans": {"system": "Streptococcus mutans", "assay": "Biofilm growth assay in BHI, crystal violet", "details": "control = 1", "method": "as §1, §2"}, "Streptococcus gordonii": {"system": "Streptococcus gordonii", "assay": "Biofilm growth assay in BHI, crystal violet", "details": "control = 1", "method": "as §1, §2"}, "Streptococcus salivarius": {"system": "Streptococcus salivarius", "assay": "Biofilm growth assay in BHI, crystal violet", "details": "control = 1", "method": "as §1, §2"}, "Tannerella forsythia": {"system": "Tannerella forsythia", "assay": "Biofilm growth assay in BHI, crystal violet", "details": "control = 1", "method": "as §1, §2"}, "Actinomyces naeslundii": {"system": "Actinomyces naeslundii", "assay": "Biofilm growth assay in BHI, crystal violet", "details": "control = 1", "method": "as §1, §2"}, "Veillonella parvula": {"system": "Veillonella parvula", "assay": "Biofilm growth assay in BHI, crystal violet", "details": "control = 1", "method": "as §1, §2"}, "Capnocytophaga sputigena": {"system": "Capnocytophaga sputigena", "assay": "Biofilm growth assay in BHI, crystal violet", "details": "control = 1", "method": "as §1, §2"}, "Streptococcus sanguinis": {"system": "Streptococcus sanguinis", "assay": "Biofilm growth assay in BHI, crystal violet", "details": "control = 1", "method": "as §1, §2"}, "[2]": {"system": "beneficial oral bacteria and pathogenic oral bacteria", "assay": "Extent of growth, whole panel: prebiotic effect", "details": "threshold value of 1.25", "from_the_text": "Substrates that were able to increase the growth (or maximal growth density or extent of growth) of at least one of the above beneficial bacteria while not or only minimally increasing the growth (or maximal growth density) of the pathogenic bacteria are considered to be prebiotic compounds.\nThe extent of growth of the tested bacteria in response to selected compounds (Met-Pro, Phe-Glu) was investigated by setting up growth curves in a nutritionally rich medium (brain heart infusion broth (BHI), Oxoid), over 48 hours. Late exponential growth phase liquid cultures were prepared by transferring the respective bacterium from blood agar plates to BHI and overnight incubation at 37° C. in an anaerobic atmosphere for A. viscosus, V. parvula, F. nucleatum, P. gingivalis, P. intermedia, T. forsythia, A. naeslundii, and C. sputigena, and in a 5% CO2 environment for S. salivarius, S. sanguinis, S. mitis, A. actinomycetemcomitans, S. mutans, S. sobrinus and S. gordonii. Overnight cultures were transferred to BHI and adjusted to a concentration of 1×10^7 CFU/ml (colony forming units per ml) by measuring the optical density at 600 nm (OD600) (BioRad SmartSpec 3000). For each strain, 200 μl of the bacterial suspension was added to a 96-well plate containing 20 μl of the respective di-peptides. Final concentrations of the di-peptides were set to 5, 10, 20 and 25 μmol/ml. […] Plates were incubated as previously described.\nFor each combination of bacterium/dipeptide, and for each of their respective controls (i.e. the particular bacterium in the nutritionally rich medium with no dipeptide), the optical density was measured at 630 nm (OD630) at 0 h, 24 h and 48 h (Thermo Scientific Multiskan Ascent). Additionally, the OD630 for combinations of bacterium/dipeptide grown in a 5% CO2 environment were also measured every hour between 0 h and 9 h.\nas §2, with “replicas) and on each day” for “replicas) and each day”, “in Tables 5 to 6,” for “in Tables 7 to 8,”, “5 to 6, below, are” for “7 to 8, below, are”\nThis value was selected in order to exclude low-stimulating metabolites and avoid false positive results."}},
  "data": [
    {"substance": "Met-Pro", "values": [
      {"measurement": "biofilm growth: OD 630 nm (crystal violet) at 48 hrs divided by OD of control", "setting": "[1]; 5 μmol/ml", "result": 0.8177},
      {"measurement": "biofilm growth: OD 630 nm (crystal violet) at 48 hrs divided by OD of control", "setting": "[1]; 10 μmol/ml", "result": 0.5095},
      {"measurement": "biofilm growth: OD 630 nm (crystal violet) at 48 hrs divided by OD of control", "setting": "[1]; 20 μmol/ml", "result": 0.2556},
      {"measurement": "biofilm growth: OD 630 nm (crystal violet) at 48 hrs divided by OD of control", "setting": "[1]; 25 μmol/ml", "result": 0.1103},
      {"measurement": "biofilm growth: OD 630 nm (crystal violet) at 48 hrs divided by OD of control", "setting": "Fusobacterium nucleatum; 5 μmol/ml", "result": 0.6087},
      {"measurement": "biofilm growth: OD 630 nm (crystal violet) at 48 hrs divided by OD of control", "setting": "Fusobacterium nucleatum; 10 μmol/ml", "result": 0.5568},
      {"measurement": "biofilm growth: OD 630 nm (crystal violet) at 48 hrs divided by OD of control", "setting": "Fusobacterium nucleatum; 20 μmol/ml", "result": 0.6796},
      {"measurement": "biofilm growth: OD 630 nm (crystal violet) at 48 hrs divided by OD of control", "setting": "Fusobacterium nucleatum; 25 μmol/ml", "result": 0.5216},
      {"measurement": "biofilm growth: OD 630 nm (crystal violet) at 48 hrs divided by OD of control", "setting": "Streptococcus mutans; 5 μmol/ml", "result": 0.0252},
      {"measurement": "biofilm growth: OD 630 nm (crystal violet) at 48 hrs divided by OD of control", "setting": "Streptococcus mutans; 10 μmol/ml", "result": 0.0118},
      {"measurement": "biofilm growth: OD 630 nm (crystal violet) at 48 hrs divided by OD of control", "setting": "Streptococcus mutans; 20 μmol/ml", "result": 0.9625},
      {"measurement": "biofilm growth: OD 630 nm (crystal violet) at 48 hrs divided by OD of control", "setting": "Streptococcus mutans; 25 μmol/ml", "result": 1.3235},
      {"measurement": "biofilm growth: OD 630 nm (crystal violet) at 48 hrs divided by OD of control", "setting": "Streptococcus gordonii; 5 μmol/ml", "result": 1.4212},
      {"measurement": "biofilm growth: OD 630 nm (crystal violet) at 48 hrs divided by OD of control", "setting": "Streptococcus gordonii; 10 μmol/ml", "result": 1.8572},
      {"measurement": "biofilm growth: OD 630 nm (crystal violet) at 48 hrs divided by OD of control", "setting": "Streptococcus gordonii; 20 μmol/ml", "result": 1.6395},
      {"measurement": "biofilm growth: OD 630 nm (crystal violet) at 48 hrs divided by OD of control", "setting": "Streptococcus gordonii; 25 μmol/ml", "result": 1.4372},
      {"measurement": "biofilm growth: OD 630 nm (crystal violet) at 48 hrs divided by OD of control", "setting": "Streptococcus salivarius; 5 μmol/ml", "result": 0.8003},
      {"measurement": "biofilm growth: OD 630 nm (crystal violet) at 48 hrs divided by OD of control", "setting": "Streptococcus salivarius; 10 μmol/ml", "result": 0.9847},
      {"measurement": "biofilm growth: OD 630 nm (crystal violet) at 48 hrs divided by OD of control", "setting": "Streptococcus salivarius; 20 μmol/ml", "result": 1.0385},
      {"measurement": "biofilm growth: OD 630 nm (crystal violet) at 48 hrs divided by OD of control", "setting": "Streptococcus salivarius; 25 μmol/ml", "result": 1.4734},
      {"measurement": "biofilm growth: OD 630 nm (crystal violet) at 48 hrs divided by OD of control", "setting": "Tannerella forsythia; 5 μmol/ml", "result": 0.4857},
      {"measurement": "biofilm growth: OD 630 nm (crystal violet) at 48 hrs divided by OD of control", "setting": "Tannerella forsythia; 10 μmol/ml", "result": 0.4691},
      {"measurement": "biofilm growth: OD 630 nm (crystal violet) at 48 hrs divided by OD of control", "setting": "Tannerella forsythia; 20 μmol/ml", "result": 0.2726},
      {"measurement": "biofilm growth: OD 630 nm (crystal violet) at 48 hrs divided by OD of control", "setting": "Tannerella forsythia; 25 μmol/ml", "result": 0.1909},
      {"measurement": "biofilm growth: OD 630 nm (crystal violet) at 48 hrs divided by OD of control", "setting": "Actinomyces naeslundii; 5 μmol/ml", "result": 1.1703},
      {"measurement": "biofilm growth: OD 630 nm (crystal violet) at 48 hrs divided by OD of control", "setting": "Actinomyces naeslundii; 10 μmol/ml", "result": 0.9986},
      {"measurement": "biofilm growth: OD 630 nm (crystal violet) at 48 hrs divided by OD of control", "setting": "Actinomyces naeslundii; 20 μmol/ml", "result": 0.4130},
      {"measurement": "biofilm growth: OD 630 nm (crystal violet) at 48 hrs divided by OD of control", "setting": "Actinomyces naeslundii; 25 μmol/ml", "result": 0.1281},
      {"measurement": "biofilm growth: OD 630 nm (crystal violet) at 48 hrs divided by OD of control", "setting": "Veillonella parvula; 5 μmol/ml", "result": 0.2845},
      {"measurement": "biofilm growth: OD 630 nm (crystal violet) at 48 hrs divided by OD of control", "setting": "Veillonella parvula; 10 μmol/ml", "result": 0.2886},
      {"measurement": "biofilm growth: OD 630 nm (crystal violet) at 48 hrs divided by OD of control", "setting": "Veillonella parvula; 20 μmol/ml", "result": 0.1745},
      {"measurement": "biofilm growth: OD 630 nm (crystal violet) at 48 hrs divided by OD of control", "setting": "Veillonella parvula; 25 μmol/ml", "result": 0.2121},
      {"measurement": "biofilm growth: OD 630 nm (crystal violet) at 48 hrs divided by OD of control", "setting": "Capnocytophaga sputigena; 5 μmol/ml", "result": 0.2411},
      {"measurement": "biofilm growth: OD 630 nm (crystal violet) at 48 hrs divided by OD of control", "setting": "Capnocytophaga sputigena; 10 μmol/ml", "result": 0.1949},
      {"measurement": "biofilm growth: OD 630 nm (crystal violet) at 48 hrs divided by OD of control", "setting": "Capnocytophaga sputigena; 20 μmol/ml", "result": 0.1660},
      {"measurement": "biofilm growth: OD 630 nm (crystal violet) at 48 hrs divided by OD of control", "setting": "Capnocytophaga sputigena; 25 μmol/ml", "result": 0.0138},
      {"measurement": "biofilm growth: OD 630 nm (crystal violet) at 48 hrs divided by OD of control", "setting": "Streptococcus sanguinis; 5 μmol/ml", "result": 1.1768},
      {"measurement": "biofilm growth: OD 630 nm (crystal violet) at 48 hrs divided by OD of control", "setting": "Streptococcus sanguinis; 10 μmol/ml", "result": 1.7015},
      {"measurement": "biofilm growth: OD 630 nm (crystal violet) at 48 hrs divided by OD of control", "setting": "Streptococcus sanguinis; 20 μmol/ml", "result": 2.1767},
      {"measurement": "biofilm growth: OD 630 nm (crystal violet) at 48 hrs divided by OD of control", "setting": "Streptococcus sanguinis; 25 μmol/ml", "result": 1.6580},
      {"measurement": "prebiotic effects (extent of growth)", "setting": "[2]; 10 μmol/ml", "result": "exhibited prebiotic effects"},
      {"measurement": "prebiotic effects (extent of growth)", "setting": "[2]; 20 μmol/ml", "result": "exhibited prebiotic effects"},
      {"measurement": "prebiotic effects (extent of growth)", "setting": "[2]; 25 μmol/ml", "result": "exhibited prebiotic effects"}
    ]}
  ]
}
